In test [1] the target is T1, KtrAB (Bacillus subtilis, UniProt O32081).
T1 construct: gene ktrB; purified complex of dimeric membrane protein KtrB and octameric cytoplasmic KtrA ring, reconstituted in liposomes; with Ktr system potassium uptake protein A
Description: ACMA fluorescence K+ efflux assay in proteoliposomes, 96-well, Hill fit of final fluorescence. Type of test: biochemical.

Another test has as its target T2, NaKΔN19/F92A (Bacillus cereus, UniProt Q81HW2, F92A).
T2 construct: gene BC_0669
The conditions noted are these: read-out: KI; no nucleotide; pH 8.0; KI defined as constant of 50% inhibition.

The target of test [2] is T3, KtrAB (Bacillus subtilis, UniProt O32081, R417K).
T3 construct: gene ktrB; purified complex of dimeric membrane protein KtrB and octameric cytoplasmic KtrA ring, reconstituted in liposomes; with Ktr system potassium uptake protein A
Description: ACMA fluorescence K+ efflux assay in proteoliposomes, single concentration. It is filed as biochemical. The conditions noted are these: ATP form; also tested in the ADP form.

The target of the next test is T4, KtrB (Bacillus subtilis, UniProt O32081).
T4 construct: purified membrane subunit KtrB alone (no KtrA), reconstituted in liposomes; dimer
Description: ACMA fluorescence K+ efflux assay in proteoliposomes, 96-well, Hill fit of final fluorescence. Type of test: biochemical.

Read-outs that look alike come from different tables or passages of the source.

T1 sequence (O32081 whole entry): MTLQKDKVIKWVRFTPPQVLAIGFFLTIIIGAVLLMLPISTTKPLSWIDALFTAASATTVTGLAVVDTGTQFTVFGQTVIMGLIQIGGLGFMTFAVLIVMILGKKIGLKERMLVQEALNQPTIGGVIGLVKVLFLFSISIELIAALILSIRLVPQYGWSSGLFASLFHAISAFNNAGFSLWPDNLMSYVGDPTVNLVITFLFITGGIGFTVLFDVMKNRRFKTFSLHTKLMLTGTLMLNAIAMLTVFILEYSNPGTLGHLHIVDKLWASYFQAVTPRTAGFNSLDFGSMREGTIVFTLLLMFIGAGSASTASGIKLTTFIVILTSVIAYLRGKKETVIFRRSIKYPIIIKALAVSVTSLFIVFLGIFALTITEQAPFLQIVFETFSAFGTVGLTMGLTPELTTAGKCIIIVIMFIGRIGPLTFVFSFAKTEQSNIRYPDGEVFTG
T1 sequence (O32080 whole entry, further chain): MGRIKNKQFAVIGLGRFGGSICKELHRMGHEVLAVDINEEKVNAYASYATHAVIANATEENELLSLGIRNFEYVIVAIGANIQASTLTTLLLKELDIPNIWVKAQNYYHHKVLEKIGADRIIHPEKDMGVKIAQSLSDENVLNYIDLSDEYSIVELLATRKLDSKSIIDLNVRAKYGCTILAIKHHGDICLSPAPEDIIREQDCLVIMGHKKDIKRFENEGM
T2 sequence (Q81HW2 19-110 F92A): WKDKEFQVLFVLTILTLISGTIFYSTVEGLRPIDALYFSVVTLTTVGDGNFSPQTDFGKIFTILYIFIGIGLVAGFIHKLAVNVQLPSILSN
T4 sequence (O32081 whole entry): as the sequence (O32081 whole entry) above
T3 sequence (O32080 whole entry): as the sequence (O32080 whole entry, further chain) above
T3 sequence (O32081 whole entry R417K): as the sequence (O32081 whole entry) above, with R417K counted along it

`Cc1cc(C)c(OCC(O)CNC(C)(C)CC(C)(C)C)c(C)c1` (centres unmarked) [compound 1, compound #1]: the IC50 at KtrAB [1] (read-out: KI) came to 2 µM; on NaKΔN19/F92A, 14 µM.
Turning to `OC(CN1CCCCCC1)CN(c1ccccc1)c1ccccc1` (centres unmarked) [compound 3, compound #3], the IC50 on KtrAB [1] (read-out: KI) was found to be 2 µM.
Regarding `COc1ccc(CN2CCN(c3cccc(C)c3C)CC2)c(OC)c1` [compound 6, compound #6], the IC50 at KtrAB [1] (read-out: KI) is 1 µM; on NaKΔN19/F92A it was 16 µM.
With `CCN(CC)CCn1c(=N)n(CC(=O)C23CC4CC(CC(C4)C2)C3)c2ccccc21` [compound 21, compound #21], on KtrAB [1] (read-out: KI), the IC50 turned out to be 0.8 µM.
Still for that read-out and setting: under `Cc1cc(C)c(C)c(OCCCCN2CCCCC2)c1` [compound 25, compound #25] stands 2 µM; under `CCCN1CCC(N(CCc2ccccc2)Cc2ccccc2)CC1` [compound 31, compound #31], 1 µM.
Consider `O=C(Nc1ccc(Cl)cc1)Nc1cccc(C(F)(F)F)c1` [compound 36, compound #36], for which the IC50 on KtrAB [1] (0.1 mM ATP (active state), 0.5 mM MgCl2, pH 8.0, KI defined as constant of 50% inhibition, read-out: KI) came to 8 µM; on KtrB (no nucleotide, KtrB alone, pH 8.0, KI defined as constant of 50% inhibition, read-out: KI), 0.5 µM. On KtrAB [2], the “% inhibition at 6 μM” value was “all tested compounds showed inhibition with both the active and inactive forms of KtrABR417K”.
For `COc1ccc(Br)cc1CNCCc1cccc(F)c1` [compound 39, compound #39], the results for the IC50 against KtrAB [1] and against KtrB were 4 µM and 3.8 µM, respectively.
Turning to `CC1CCCC(C)N1CC(O)COc1ccc(Cl)cc1` (centres unmarked) [compound 41, compound #41], the IC50 on KtrAB [1] (read-out: KI) came to 3 µM.

These data come from article PMC7956971, “Fluorometric Liposome Screen for Inhibitors of a Physiologically Important Bacterial Ion Channel” (Frontiers in Microbiology, 2021).
